{"source": "ChEMBL document CHEMBL3784917", "about": "“Recent Progress in Histone Demethylase Inhibitors” (J Med Chem, 2016)", "key": {"[1]": {"target": "Lysine-specific demethylase 5C (Homo sapiens, UniProt P41229)", "sequence (P41229 whole entry)": "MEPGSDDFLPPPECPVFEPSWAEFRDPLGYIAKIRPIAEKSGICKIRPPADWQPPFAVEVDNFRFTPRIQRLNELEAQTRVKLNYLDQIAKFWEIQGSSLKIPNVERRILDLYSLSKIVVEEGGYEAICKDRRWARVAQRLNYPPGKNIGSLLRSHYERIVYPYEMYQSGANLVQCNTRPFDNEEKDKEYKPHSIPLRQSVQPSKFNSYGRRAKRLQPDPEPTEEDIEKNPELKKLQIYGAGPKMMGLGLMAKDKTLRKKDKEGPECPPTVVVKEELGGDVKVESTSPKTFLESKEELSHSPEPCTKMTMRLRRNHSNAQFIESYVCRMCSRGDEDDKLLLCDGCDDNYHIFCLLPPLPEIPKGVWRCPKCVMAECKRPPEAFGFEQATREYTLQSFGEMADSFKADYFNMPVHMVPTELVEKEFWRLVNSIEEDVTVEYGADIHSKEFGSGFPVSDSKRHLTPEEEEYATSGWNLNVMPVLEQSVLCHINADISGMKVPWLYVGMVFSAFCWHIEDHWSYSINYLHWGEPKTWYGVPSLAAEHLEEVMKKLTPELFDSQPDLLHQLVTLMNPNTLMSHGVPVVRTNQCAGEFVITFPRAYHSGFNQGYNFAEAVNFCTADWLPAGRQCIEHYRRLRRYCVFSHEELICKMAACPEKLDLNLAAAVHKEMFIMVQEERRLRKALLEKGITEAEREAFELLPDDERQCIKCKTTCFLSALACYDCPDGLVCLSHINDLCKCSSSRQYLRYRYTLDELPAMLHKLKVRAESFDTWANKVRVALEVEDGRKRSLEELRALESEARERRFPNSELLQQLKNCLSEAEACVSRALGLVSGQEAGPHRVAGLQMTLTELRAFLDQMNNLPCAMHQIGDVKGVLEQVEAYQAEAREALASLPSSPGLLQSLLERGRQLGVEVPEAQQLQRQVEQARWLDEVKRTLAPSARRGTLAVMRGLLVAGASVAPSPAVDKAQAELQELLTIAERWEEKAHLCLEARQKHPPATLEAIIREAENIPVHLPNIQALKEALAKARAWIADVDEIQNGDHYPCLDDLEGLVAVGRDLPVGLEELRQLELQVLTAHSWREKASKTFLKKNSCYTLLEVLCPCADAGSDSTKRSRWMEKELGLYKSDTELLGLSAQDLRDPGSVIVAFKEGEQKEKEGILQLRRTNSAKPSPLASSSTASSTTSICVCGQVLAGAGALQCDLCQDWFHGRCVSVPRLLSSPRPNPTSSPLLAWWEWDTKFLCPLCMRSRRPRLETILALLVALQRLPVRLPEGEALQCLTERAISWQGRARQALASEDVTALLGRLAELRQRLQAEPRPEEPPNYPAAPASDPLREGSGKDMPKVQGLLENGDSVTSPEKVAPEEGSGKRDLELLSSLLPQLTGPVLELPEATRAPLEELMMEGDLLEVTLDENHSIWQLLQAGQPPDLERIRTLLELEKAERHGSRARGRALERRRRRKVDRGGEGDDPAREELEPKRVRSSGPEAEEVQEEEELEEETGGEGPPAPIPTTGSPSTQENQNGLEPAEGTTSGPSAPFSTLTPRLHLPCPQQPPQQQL"}, "[2]": {"target": "T1, Lysine-specific demethylase 3A (Homo sapiens, UniProt Q9Y4C1)", "T1 sequence (Q9Y4C1 whole entry)": "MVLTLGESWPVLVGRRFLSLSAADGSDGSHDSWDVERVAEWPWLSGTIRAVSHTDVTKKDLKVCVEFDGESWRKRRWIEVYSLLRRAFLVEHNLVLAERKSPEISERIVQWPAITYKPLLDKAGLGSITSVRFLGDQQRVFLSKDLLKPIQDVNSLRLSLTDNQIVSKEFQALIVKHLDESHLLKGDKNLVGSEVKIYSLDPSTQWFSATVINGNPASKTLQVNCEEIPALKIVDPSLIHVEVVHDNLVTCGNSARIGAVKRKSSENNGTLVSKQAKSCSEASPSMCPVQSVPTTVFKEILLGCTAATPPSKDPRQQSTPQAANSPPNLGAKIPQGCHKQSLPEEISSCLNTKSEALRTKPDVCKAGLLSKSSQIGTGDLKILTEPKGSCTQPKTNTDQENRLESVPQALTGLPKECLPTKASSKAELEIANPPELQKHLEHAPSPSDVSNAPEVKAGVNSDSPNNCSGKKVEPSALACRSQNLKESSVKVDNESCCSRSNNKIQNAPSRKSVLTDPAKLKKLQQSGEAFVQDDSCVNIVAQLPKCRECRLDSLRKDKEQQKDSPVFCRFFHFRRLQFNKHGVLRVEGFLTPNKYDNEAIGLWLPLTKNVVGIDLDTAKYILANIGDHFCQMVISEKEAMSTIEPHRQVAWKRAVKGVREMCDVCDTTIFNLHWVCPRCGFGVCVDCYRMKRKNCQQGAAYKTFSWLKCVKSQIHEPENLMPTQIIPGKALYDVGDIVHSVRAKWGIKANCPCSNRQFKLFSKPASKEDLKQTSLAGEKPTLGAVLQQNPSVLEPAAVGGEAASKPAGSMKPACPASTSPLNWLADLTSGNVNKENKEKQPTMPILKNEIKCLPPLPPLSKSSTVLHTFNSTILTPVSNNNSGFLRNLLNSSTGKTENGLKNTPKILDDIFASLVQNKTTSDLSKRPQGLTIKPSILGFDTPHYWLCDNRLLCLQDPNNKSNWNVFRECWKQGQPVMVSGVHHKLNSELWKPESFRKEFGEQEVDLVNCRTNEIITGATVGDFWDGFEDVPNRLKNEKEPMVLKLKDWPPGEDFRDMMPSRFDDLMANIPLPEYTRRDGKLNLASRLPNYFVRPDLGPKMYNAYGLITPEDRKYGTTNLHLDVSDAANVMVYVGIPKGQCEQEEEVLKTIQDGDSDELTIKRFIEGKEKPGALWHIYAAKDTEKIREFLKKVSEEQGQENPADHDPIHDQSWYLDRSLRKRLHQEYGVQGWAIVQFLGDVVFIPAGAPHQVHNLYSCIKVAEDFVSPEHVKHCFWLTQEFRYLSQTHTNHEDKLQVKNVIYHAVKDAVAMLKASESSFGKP", "experiment": "Inhibition of KDM3A (unknown origin) after 24 hrs by alphascreen assay"}, "[3]": {"target": "Lysine-specific demethylase 4E (Homo sapiens, UniProt B2RXH2)", "sequence (B2RXH2 whole entry)": "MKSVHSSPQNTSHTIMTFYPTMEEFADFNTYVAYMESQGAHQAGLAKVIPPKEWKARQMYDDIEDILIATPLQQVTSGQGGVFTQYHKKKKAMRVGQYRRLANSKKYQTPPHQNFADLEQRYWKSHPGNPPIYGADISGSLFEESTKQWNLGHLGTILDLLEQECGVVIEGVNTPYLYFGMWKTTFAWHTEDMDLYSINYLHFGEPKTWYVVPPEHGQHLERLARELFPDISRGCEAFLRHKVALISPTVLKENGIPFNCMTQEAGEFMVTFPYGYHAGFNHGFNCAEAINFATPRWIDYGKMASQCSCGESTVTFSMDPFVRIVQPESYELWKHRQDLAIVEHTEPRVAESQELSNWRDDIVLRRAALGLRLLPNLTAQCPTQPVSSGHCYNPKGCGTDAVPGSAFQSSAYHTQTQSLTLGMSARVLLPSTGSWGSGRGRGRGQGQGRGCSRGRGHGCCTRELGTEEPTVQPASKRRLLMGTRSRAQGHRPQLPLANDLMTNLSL", "experiment": "Inhibition of KDM4E (unknown origin) after 24 hrs by alphascreen assay"}, "[4]": {"target": "T2, Lysine-specific demethylase 4C (Homo sapiens, UniProt Q9H3R0)", "T2 sequence (Q9H3R0 whole entry)": "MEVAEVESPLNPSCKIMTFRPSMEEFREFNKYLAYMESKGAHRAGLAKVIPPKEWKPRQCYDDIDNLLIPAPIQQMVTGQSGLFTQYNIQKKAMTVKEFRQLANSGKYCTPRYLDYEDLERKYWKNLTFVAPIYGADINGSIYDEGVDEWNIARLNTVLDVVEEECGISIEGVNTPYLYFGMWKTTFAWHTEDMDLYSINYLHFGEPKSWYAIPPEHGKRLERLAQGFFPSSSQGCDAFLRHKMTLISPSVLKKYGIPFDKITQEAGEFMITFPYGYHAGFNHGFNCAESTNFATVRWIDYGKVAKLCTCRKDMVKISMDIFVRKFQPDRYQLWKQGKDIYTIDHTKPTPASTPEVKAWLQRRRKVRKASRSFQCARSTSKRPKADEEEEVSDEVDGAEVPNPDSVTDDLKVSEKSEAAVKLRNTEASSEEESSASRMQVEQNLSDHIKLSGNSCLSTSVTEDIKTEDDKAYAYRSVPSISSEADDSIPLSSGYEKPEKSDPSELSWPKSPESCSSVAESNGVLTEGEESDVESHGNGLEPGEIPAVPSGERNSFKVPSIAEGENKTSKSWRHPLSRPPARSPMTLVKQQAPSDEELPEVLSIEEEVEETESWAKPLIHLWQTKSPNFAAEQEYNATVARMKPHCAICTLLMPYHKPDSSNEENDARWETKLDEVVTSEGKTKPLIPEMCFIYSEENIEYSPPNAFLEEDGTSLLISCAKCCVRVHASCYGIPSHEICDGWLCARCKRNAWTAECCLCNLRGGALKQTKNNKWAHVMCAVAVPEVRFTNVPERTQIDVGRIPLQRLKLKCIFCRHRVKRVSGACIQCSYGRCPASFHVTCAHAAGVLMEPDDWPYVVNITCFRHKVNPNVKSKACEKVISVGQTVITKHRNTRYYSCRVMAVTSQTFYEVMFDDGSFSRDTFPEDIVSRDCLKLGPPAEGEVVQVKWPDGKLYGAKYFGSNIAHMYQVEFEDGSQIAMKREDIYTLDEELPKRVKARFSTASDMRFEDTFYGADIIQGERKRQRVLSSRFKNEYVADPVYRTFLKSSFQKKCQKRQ", "experiment": "Inhibition of KDM4C (unknown origin) using H3K9me3 as substrate after 24 hrs by alphascreen assay"}, "[5]": {"target": "T2, Lysine-specific demethylase 4C", "experiment": "Inhibition of KDM4C (unknown origin) preincubated for 15 mins followed by histone substrate addition measured after 1 hr by alphascreen assay"}}, "note": "pIC50: −log10 of the molar value."}
{"smiles": "CCN(CCN(C)C)C(=O)CNCc1cc(C(=O)O)ccn1", "values": [{"measurement": "pIC50", "setting": "[1]", "value": 6.00}]}
{"smiles": "CCCCCCCCOC(=O)c1ccc(O)c2ncccc12", "values": [{"measurement": "pIC50", "setting": "[2]", "value": "< 4.00"}, {"measurement": "pIC50", "setting": "[3]", "value": 4.35}, {"measurement": "pIC50", "setting": "[4]", "value": 5.41}]}
{"smiles": "Cc1ccsc1C(NC(=O)c1ccccc1)c1cc(Cl)c2cccnc2c1O", "note": "(racemic)", "values": [{"measurement": "pIC50", "setting": "[5]", "value": 5.30}]}
